Marks after values point to notes of the source that are not given here.
How the values were obtained:
Assay type in all cases: physicochemical
[1] = Viscosity, Brookfield DVI cone and plate viscometer; conditions: 21.7° C.; neat MIL dried 48 hours under vacuum
Procedure: A Brookfield DVI cone and plate viscometer equipped with a CPA-51Z cone spindle was employed to obtain viscosity measurements at […] using approximately 0.5 g of each MIL after extensive drying for 48 hours under vacuum. Viscosity measurements were conducted at 21.7° C. for 15 lanthanide and transition metal MILs examined in this study.
Viscosity measurements were conducted at 21.7° C. for 15 lanthanide and transition metal MILs examined in this study.

[2] = Effective magnetic moment from magnetic susceptibility balance (MSB); conditions: per formula unit
Procedure: Magnetic properties were analyzed using a magnetic susceptibility balance (MSB, Sherwood Scientific, Cambridge, UK) and a Quantum Design Superconducting Quantum Interference Device (SQUID) magnetometer (MPMS XL-7). The magnetic properties of transition metal MILs were further studied using a SQUID magnetometer to confirm their paramagnetic nature as well as if any magnetic transition occurs in the samples.
Magnetic susceptibility (XM) was calculated through Equation (1).
Effective magnetic moment (μeff) was calculated through Equation (2). In Equation (2), T represents the temperature at which the magnetic susceptibility measurements were conducted.
15 MILs incorporating rare-earth and transition metals were examined using a magnetic susceptibility balance (MSB).

[3] = Solubility of MILs in organic solvents and water
Excerpt: The solubility of lanthanide and transition metal MILs was investigated in popular traditional organic solvents. […]
The solubility of lanthanide and transition metal MILs was investigated in popular traditional organic solvents.

[4] = Thermal stability, MIL as GC stationary phase with FID; conditions: exponential increase in response beyond 2,000 pA
Procedure: (§1) The thermal stability of MILs was measured from 40 to 350° C. at a ramp rate of 5° C. min^−1 by performing thermogravimetric analysis (TGA) using a NETZSCH STA 449 F1 Jupiter thermal analyzer (Selb, Germany). To further investigate the thermal stability of MILs using a more sensitive technique, the solvents were employed as a gas chromatographic (GC) stationary phase and subjected to an oven temperature program from 40 to 200° C. at a ramp rate of 1° C. min^−1 and decomposition/degradation products detected using an ultra-sensitive flame ionization detector (FID), with all measurements being performed on an Agilent Technologies 7890B gas chromatograph (Santa Clara, CA, USA).
To further investigate the thermal stability of MILs using a more sensitive technique, the solvents were employed as a gas chromatographic (GC) stationary phase and subjected to an oven temperature program from 40 to 200° C. at a ramp rate of 1° C. min^−1 and decomposition/degradation products detected using an ultra-sensitive flame ionization detector (FID).

[5] = Thermal stability by thermogravimetric analysis (TGA); conditions: TGA at 10% weight loss
Procedure: as §1
Volitization/degradation of MILs as a function of temperature were measured using thermogravimetric analysis. The thermal stability of magnetic ionic liquids was measured from 40 to 350° C. at a ramp rate of 5° C. min^−1 by performing thermogravimetric analysis (TGA) using a NETZSCH STA 449 F1 Jupiter thermal analyzer (Selb, Germany).
To investigate the ability of DGE-based MILs to withstand elevated temperatures without undergoing degradation/decomposition, their thermal stabilities were investigated using thermogravimetric analysis (TGA). FIG. 13 through FIG. 27 display thermograms for MILs 1 to 15. The thermogram results are summarized in greater detail in the following paragraphs.

[6] = acetone, chloroform, dichloromethane, acetonitrile, methanol, ethanol, diethyl ether, ethyl acetate, isopropanol at 20% (w/v)
[7] = hexane, heptane, benzene, toluene at 10% (w/v)
[8] = hexane, heptane, benzene, toluene at 20% (w/v)
[9] = twelve organic solvents (without acetonitrile) at 50% (w/v)

| Compound | Viscosity (cP) [1] | μeff, effective magnetic moment [2] [μB] | Solubility [3, 6] | Solubility [3, 7] | Solubility [3, 8] | Solubility [3, 9] | Solubility ([3]; water at 0.01% (w/v)) | Onset of MIL volatilization (° C.)^1 [4] [°C] | Onset of MIL volatilization (° C.)^2 [5] [°C] | Solubility ([3]; acetonitrile at 50% (w/v)) |
| --- | --- | --- | --- | --- | --- | --- | --- | --- | --- | --- |
| CCCCCCCCOC(=O)COCC(=O)OCCCCCCCC.CCCCCCCCOC(=O)COCC(=O)OCCCCCCCC.CCCCCCCCOC(=O)COCC(=O)OCCCCCCCC.CCCCCCCCOC(=O)COCC(=O)OCCCCCCCC.CCCCCCCCOC(=O)COCC(=O)OCCCCCCCC.CCCCCCCCOC(=O)COCC(=O)OCCCCCCCC.O=C(C=C([O-])C(F)(F)F)C(F)(F)F.O=C(C=C([O-])C(F)(F)F)C(F)(F)F.O=C(C=C([O-])C(F)(F)F)C(F)(F)F.O=C(C=C([O-])C(F)(F)F)C(F)(F)F.O=C(C=C([O-])C(F)(F)F)C(F)(F)F.O=C(C=C([O-])C(F)(F)F)C(F)(F)F.[Mn+2].[Mn+2].[Mn+2] [compound 6] | 96.3 cP | 10.25 | S^b (soluble in acetone, chloroform, dichloromethane, acetonitrile, methanol, ethanol, diethyl ether, ethyl acetate, and isopropanol at 20% (w/v).) | S^a (soluble in hexane, heptane, benzene, and toluene at 10% (w/v).) | S^c (soluble in hexane, heptane, benzene, and toluene at 20% (w/v).) | S^d (soluble in acetone, chloroform, dichloromethane, methanol, ethanol, diethyl ether, ethyl acetate, isopropanol hexane, heptane, benzene, and toluene at 50% (w/v).) | S^f (insoluble in water at 0.01% (w/v).) | 182 | 259.1 |  |
| O=C(C=C([O-])C(F)(F)F)C(F)(F)F.O=C(C=C([O-])C(F)(F)F)C(F)(F)F.O=C(C=C([O-])C(F)(F)F)C(F)(F)F.O=C(C=C([O-])C(F)(F)F)C(F)(F)F.O=C(C=C([O-])C(F)(F)F)C(F)(F)F.O=C(C=C([O-])C(F)(F)F)C(F)(F)F.O=C(COCC(=O)OC1CCCCC1)OC1CCCCC1.O=C(COCC(=O)OC1CCCCC1)OC1CCCCC1.O=C(COCC(=O)OC1CCCCC1)OC1CCCCC1.O=C(COCC(=O)OC1CCCCC1)OC1CCCCC1.O=C(COCC(=O)OC1CCCCC1)OC1CCCCC1.O=C(COCC(=O)OC1CCCCC1)OC1CCCCC1.[Mn+2].[Mn+2].[Mn+2] [compound 9] | 478.9 cP | 9.96 | S^b (soluble in acetone, chloroform, dichloromethane, acetonitrile, methanol, ethanol, diethyl ether, ethyl acetate, and isopropanol at 20% (w/v).) | S^a (soluble in hexane, heptane, benzene, and toluene at 10% (w/v).) | S^c (soluble in hexane, heptane, benzene, and toluene at 20% (w/v).) | S^d (soluble in acetone, chloroform, dichloromethane, methanol, ethanol, diethyl ether, ethyl acetate, isopropanol hexane, heptane, benzene, and toluene at 50% (w/v).) | S^f (insoluble in water at 0.01% (w/v).) | 159 | 176.9 | S^e (insoluble in acetonitrile at 50% (w/v).) |
| CCCCCCCCOC(=O)c1ccc(C(=O)OCCCCCCCC)o1.CCCCCCCCOC(=O)c1ccc(C(=O)OCCCCCCCC)o1.CCCCCCCCOC(=O)c1ccc(C(=O)OCCCCCCCC)o1.CCCCCCCCOC(=O)c1ccc(C(=O)OCCCCCCCC)o1.CCCCCCCCOC(=O)c1ccc(C(=O)OCCCCCCCC)o1.CCCCCCCCOC(=O)c1ccc(C(=O)OCCCCCCCC)o1.O=C(C=C([O-])C(F)(F)F)C(F)(F)F.O=C(C=C([O-])C(F)(F)F)C(F)(F)F.O=C(C=C([O-])C(F)(F)F)C(F)(F)F.O=C(C=C([O-])C(F)(F)F)C(F)(F)F.O=C(C=C([O-])C(F)(F)F)C(F)(F)F.O=C(C=C([O-])C(F)(F)F)C(F)(F)F.[Mn+2].[Mn+2].[Mn+2] [compound 12] | 291.8^b cP | 10.04 | S^b (soluble in acetone, chloroform, dichloromethane, acetonitrile, methanol, ethanol, diethyl ether, ethyl acetate, and isopropanol at 20% (w/v).) | S^a (soluble in hexane, heptane, benzene, and toluene at 10% (w/v).) | S^c (soluble in hexane, heptane, benzene, and toluene at 20% (w/v).) | S^d (soluble in acetone, chloroform, dichloromethane, methanol, ethanol, diethyl ether, ethyl acetate, isopropanol hexane, heptane, benzene, and toluene at 50% (w/v).) | S^f (insoluble in water at 0.01% (w/v).) | 144 | 160.4 |  |
| CCCCCCOC(=O)COCC(=O)OCCCCCC.CCCCCCOC(=O)COCC(=O)OCCCCCC.CCCCCCOC(=O)COCC(=O)OCCCCCC.CCCCCCOC(=O)COCC(=O)OCCCCCC.CCCCCCOC(=O)COCC(=O)OCCCCCC.CCCCCCOC(=O)COCC(=O)OCCCCCC.O=C(C=C([O-])C(F)(F)F)C(F)(F)F.O=C(C=C([O-])C(F)(F)F)C(F)(F)F.O=C(C=C([O-])C(F)(F)F)C(F)(F)F.O=C(C=C([O-])C(F)(F)F)C(F)(F)F.O=C(C=C([O-])C(F)(F)F)C(F)(F)F.O=C(C=C([O-])C(F)(F)F)C(F)(F)F.[Mn+2].[Mn+2].[Mn+2] [compound 3] | 63.2 cP | 10.42 | S^b (soluble in acetone, chloroform, dichloromethane, acetonitrile, methanol, ethanol, diethyl ether, ethyl acetate, and isopropanol at 20% (w/v).) | S^a (soluble in hexane, heptane, benzene, and toluene at 10% (w/v).) | S^c (soluble in hexane, heptane, benzene, and toluene at 20% (w/v).) | S^d (soluble in acetone, chloroform, dichloromethane, methanol, ethanol, diethyl ether, ethyl acetate, isopropanol hexane, heptane, benzene, and toluene at 50% (w/v).) | S^f (insoluble in water at 0.01% (w/v).) | 168 | 256.8 | S^e (insoluble in acetonitrile at 50% (w/v).) |
| CCCCCCCCOC(=O)c1ccc(C(=O)OCCCCCCCC)o1.CCCCCCCCOC(=O)c1ccc(C(=O)OCCCCCCCC)o1.CCCCCCCCOC(=O)c1ccc(C(=O)OCCCCCCCC)o1.CCCCCCCCOC(=O)c1ccc(C(=O)OCCCCCCCC)o1.CCCCCCCCOC(=O)c1ccc(C(=O)OCCCCCCCC)o1.CCCCCCCCOC(=O)c1ccc(C(=O)OCCCCCCCC)o1.O=C(C=C([O-])C(F)(F)F)C(F)(F)F.O=C(C=C([O-])C(F)(F)F)C(F)(F)F.O=C(C=C([O-])C(F)(F)F)C(F)(F)F.O=C(C=C([O-])C(F)(F)F)C(F)(F)F.O=C(C=C([O-])C(F)(F)F)C(F)(F)F.O=C(C=C([O-])C(F)(F)F)C(F)(F)F.[Co+2].[Co+2].[Co+2] [compound 10] | 354.7^b cP | 8.27 | S^b (soluble in acetone, chloroform, dichloromethane, acetonitrile, methanol, ethanol, diethyl ether, ethyl acetate, and isopropanol at 20% (w/v).) | S^a (soluble in hexane, heptane, benzene, and toluene at 10% (w/v).) | S^c (soluble in hexane, heptane, benzene, and toluene at 20% (w/v).) | S^d (soluble in acetone, chloroform, dichloromethane, methanol, ethanol, diethyl ether, ethyl acetate, isopropanol hexane, heptane, benzene, and toluene at 50% (w/v).) | S^f (insoluble in water at 0.01% (w/v).) | 147 | 163.0 |  |
